Data taken from ChEMBL document CHEMBL1127936, “Mercaptoacyl dipeptides as dual inhibitors of angiotensin-converting enzyme and neutral endopeptidase. Preliminary structure-activity studies” (Bioorg Med Chem Lett, 1994).

Key:
Neprilysin = biological target: T1, Neprilysin (Rattus norvegicus, UniProt P07861); assay: In vitro inhibition of rat kidney neutral endopeptidase (NEP) by fluorometric assay using Dansyl-Gly-Phe-Arg as substrate
T1 sequence (P07861 whole entry): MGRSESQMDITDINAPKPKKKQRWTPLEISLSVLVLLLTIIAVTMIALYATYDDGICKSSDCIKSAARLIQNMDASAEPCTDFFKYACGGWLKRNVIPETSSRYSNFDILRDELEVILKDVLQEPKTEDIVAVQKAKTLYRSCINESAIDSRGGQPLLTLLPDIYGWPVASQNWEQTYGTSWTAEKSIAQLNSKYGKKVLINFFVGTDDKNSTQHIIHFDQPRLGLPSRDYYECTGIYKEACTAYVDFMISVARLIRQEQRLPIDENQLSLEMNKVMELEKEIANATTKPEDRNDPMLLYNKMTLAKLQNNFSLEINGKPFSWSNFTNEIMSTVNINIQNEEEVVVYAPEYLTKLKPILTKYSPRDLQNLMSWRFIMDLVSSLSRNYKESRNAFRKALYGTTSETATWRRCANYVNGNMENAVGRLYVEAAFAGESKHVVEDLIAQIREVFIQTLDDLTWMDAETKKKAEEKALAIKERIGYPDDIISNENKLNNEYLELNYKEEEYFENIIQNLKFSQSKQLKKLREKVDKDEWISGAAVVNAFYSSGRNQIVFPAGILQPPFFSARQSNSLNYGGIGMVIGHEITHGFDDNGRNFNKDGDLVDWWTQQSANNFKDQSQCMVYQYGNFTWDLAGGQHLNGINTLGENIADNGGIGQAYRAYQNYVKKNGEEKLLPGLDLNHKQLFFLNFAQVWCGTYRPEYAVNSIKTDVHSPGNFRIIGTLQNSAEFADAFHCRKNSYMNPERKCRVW

[1] = biological target: T2, Angiotensin-converting enzyme (Oryctolagus cuniculus, UniProt P12822); assay: In vitro inhibition of rabbit lung Angiotensin I converting enzyme (ACE) using Hippuryl-His-Leu as substrate
T2 sequence (P12822 whole entry): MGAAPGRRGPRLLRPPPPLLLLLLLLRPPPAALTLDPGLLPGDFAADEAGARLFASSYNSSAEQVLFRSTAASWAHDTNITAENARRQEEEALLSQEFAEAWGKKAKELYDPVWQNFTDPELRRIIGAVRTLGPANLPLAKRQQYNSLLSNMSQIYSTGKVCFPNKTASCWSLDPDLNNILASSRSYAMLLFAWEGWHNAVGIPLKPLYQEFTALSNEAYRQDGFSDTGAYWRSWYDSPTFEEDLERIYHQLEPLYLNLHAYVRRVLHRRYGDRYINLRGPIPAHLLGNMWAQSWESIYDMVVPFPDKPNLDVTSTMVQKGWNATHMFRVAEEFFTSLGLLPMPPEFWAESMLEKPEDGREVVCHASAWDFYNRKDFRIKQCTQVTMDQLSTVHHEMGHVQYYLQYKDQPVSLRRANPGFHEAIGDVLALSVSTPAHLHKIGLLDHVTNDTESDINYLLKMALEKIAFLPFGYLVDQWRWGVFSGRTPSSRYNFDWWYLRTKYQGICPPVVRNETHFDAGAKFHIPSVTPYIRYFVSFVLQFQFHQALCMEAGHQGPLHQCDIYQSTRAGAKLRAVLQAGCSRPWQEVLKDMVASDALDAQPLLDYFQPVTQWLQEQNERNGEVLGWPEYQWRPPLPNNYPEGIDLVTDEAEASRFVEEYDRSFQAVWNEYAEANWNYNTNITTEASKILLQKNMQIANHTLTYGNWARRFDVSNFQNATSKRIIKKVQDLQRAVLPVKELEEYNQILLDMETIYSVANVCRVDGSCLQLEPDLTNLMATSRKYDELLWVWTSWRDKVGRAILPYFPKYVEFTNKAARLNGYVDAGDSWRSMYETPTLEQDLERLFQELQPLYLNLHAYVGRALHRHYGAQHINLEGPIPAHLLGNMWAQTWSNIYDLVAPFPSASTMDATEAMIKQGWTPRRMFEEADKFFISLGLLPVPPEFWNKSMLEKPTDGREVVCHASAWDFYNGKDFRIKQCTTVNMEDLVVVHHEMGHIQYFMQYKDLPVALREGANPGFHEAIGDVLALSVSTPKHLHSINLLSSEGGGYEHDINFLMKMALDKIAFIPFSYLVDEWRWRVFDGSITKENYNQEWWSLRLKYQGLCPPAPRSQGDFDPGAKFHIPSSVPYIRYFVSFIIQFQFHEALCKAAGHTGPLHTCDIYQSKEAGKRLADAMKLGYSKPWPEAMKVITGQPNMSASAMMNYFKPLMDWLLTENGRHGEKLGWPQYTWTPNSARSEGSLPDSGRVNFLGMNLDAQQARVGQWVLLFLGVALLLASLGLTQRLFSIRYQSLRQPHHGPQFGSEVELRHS

Rattus norvegicus [2] = assay: In vivo inhibition of angiotensin I-induced pressor response after iv administration in normotensive rats; format: functional
Rattus norvegicus [3] = assay: In vivo inhibition of angiotensin- 1 induced pressor response after iv administration in normotensive rats; format: functional

| SMILES | IC50 (Neprilysin) [µM] | IC50 [1] [µM] | ED50 (Rattus norvegicus [2]) [µmol/kg] | ED50 (Rattus norvegicus [3]) [µmol/kg] |
| --- | --- | --- | --- | --- |
| C[C@H](NC(=O)[C@@H](S)Cc1ccccc1)C(=O)N1CCC[C@H]1C(=O)O | 0.4 | 0.03 | 0.06 |  |
| C[C@H](NC(=O)[C@@H](CS)Cc1ccc(OCc2ccccc2)cc1)C(=O)N1CCC[C@@H]1C(=O)O | 0.04 | 0.88 |  |  |
| C[C@H](NC(=O)[C@@H](CS)Cc1ccccc1)C(=O)N1CCC[C@H]1C(=O)O | 0.0066 | 0.004 | 0.5 |  |
| C[C@H](NC(=O)C(CS)CCc1ccccc1)C(=O)N1CCC[C@@H]1C(=O)O (stereo not given in full) | 0.16 | 0.29 |  |  |
| C[C@H](NC(=O)[C@@H](CS)Cc1ccccc1)C(=O)N1C[C@H](C2CCCCC2)C[C@H]1C(=O)O | 0.0066 | 0.018 | 2.5 |  |
| C[C@H](CS)C(=O)N[C@@H](C)C(=O)N1CCC[C@@H]1C(=O)O | 0.14 | 1.8 |  |  |
| C[C@H](NC(=O)[C@@H](CS)Cc1ccccc1)C(=O)N1Cc2ccccc2C[C@H]1C(=O)O | 0.0039 | 0.014 | 0.57 |  |
| C[C@H](NC(=O)[C@H](CS)Cc1ccccc1)C(=O)N1CCC[C@H]1C(=O)O | 0.045 | 0.21 | 8.1 |  |
| C[C@H](NC(=O)[C@@H](CS)Cc1ccccc1Cl)C(=O)N1CCC[C@@H]1C(=O)O | 0.0022 | 0.025 | 2.6 |  |
| C[C@H](NC(=O)[C@H](Cc1ccccc1)[C@@H](C)S)C(=O)N1CCC[C@H]1C(=O)O | 0.182 | 0.078 | > 5 |  |
| C[C@H](NC(=O)[C@@H](CS)Cc1ccccc1)C(=O)N1c2ccccc2C[C@H]1C(=O)O | 0.0026 | 0.0078 | 0.15 |  |
| C[C@H](NC(=O)[C@H](Cc1ccccc1)[C@H](C)S)C(=O)N1CCC[C@H]1C(=O)O | 0.032 | 0.452 |  |  |
| C[C@H](NC(=O)[C@@H](CS)Cc1ccccc1)C(=O)N1C[C@@H](Sc2ccccc2)C[C@H]1C(=O)O | 0.0016 | 0.0087 | 0.78 |  |
| Cc1ccccc1C[C@H](CS)C(=O)N[C@@H](C)C(=O)N1CCC[C@@H]1C(=O)O | 0.0062 | 0.069 | 4.2 |  |
| CC(C)CC(CS)C(=O)N[C@@H](C)C(=O)N1CCC[C@@H]1C(=O)O (stereo not given in full) | 0.01 | 0.49 |  |  |
| O=C(N[C@@H](Cc1c[nH]c2ccccc12)C(=O)N1CCC[C@H]1C(=O)O)[C@@H](CS)Cc1ccccc1 | 0.025 | 0.01 | 6.4 |  |
| CC(C)C[C@H](NC(=O)[C@@H](S)Cc1ccccc1)C(=O)O |  | 1.6 |  |  |
| CC(C)C[C@H](NC(=O)[C@@H](CS)Cc1ccccc1)C(=O)O |  | 0.037 |  |  |
| O=C(O)CCNC(=O)[C@@H](CS)Cc1ccccc1 | 0.0094 | 32 |  |  |
| C[C@H](NC(=O)[C@H](S)Cc1ccccc1)C(=O)N1CCC[C@H]1C(=O)O | 0.285 | 0.08 | 0.03 |  |
| C[C@H](NC(=O)[C@@H](CS)Cc1ccccc1)C(=O)O |  | 0.12 |  | 15 |
| CCC[C@H](NC(=O)[C@@H](CS)Cc1ccccc1)C(=O)N1CCC[C@H]1C(=O)O | 0.002 | 0.01 | 2.2 |  |
